Patent US20130102009A1, “SIRTUIN ACTIVATORS AND ACTIVATION ASSAYS” (priority 2010, published 2013)
“And” between values parts separate entries of the source, which are not always exact repeats. Equal values may be shown once. Where a name gives a salt, the structure may show the parent alone.

What was measured:
SIRT1 [1] = target: T1, SIRT1 (Homo sapiens, UniProt Q96EB6); assay: Mass spectrometry based SIRT1 activation assay (TAMRA/5TMR-labeled 20mer peptide); format: biochemical; details: for Emax: 25 min, percent maximum fold activation of SIRT1, read-out: % FOLD ACT.; for EC1.5 uM: concentration that results in 150% activation of SIRT1
T1 sequence (Q96EB6 1-747): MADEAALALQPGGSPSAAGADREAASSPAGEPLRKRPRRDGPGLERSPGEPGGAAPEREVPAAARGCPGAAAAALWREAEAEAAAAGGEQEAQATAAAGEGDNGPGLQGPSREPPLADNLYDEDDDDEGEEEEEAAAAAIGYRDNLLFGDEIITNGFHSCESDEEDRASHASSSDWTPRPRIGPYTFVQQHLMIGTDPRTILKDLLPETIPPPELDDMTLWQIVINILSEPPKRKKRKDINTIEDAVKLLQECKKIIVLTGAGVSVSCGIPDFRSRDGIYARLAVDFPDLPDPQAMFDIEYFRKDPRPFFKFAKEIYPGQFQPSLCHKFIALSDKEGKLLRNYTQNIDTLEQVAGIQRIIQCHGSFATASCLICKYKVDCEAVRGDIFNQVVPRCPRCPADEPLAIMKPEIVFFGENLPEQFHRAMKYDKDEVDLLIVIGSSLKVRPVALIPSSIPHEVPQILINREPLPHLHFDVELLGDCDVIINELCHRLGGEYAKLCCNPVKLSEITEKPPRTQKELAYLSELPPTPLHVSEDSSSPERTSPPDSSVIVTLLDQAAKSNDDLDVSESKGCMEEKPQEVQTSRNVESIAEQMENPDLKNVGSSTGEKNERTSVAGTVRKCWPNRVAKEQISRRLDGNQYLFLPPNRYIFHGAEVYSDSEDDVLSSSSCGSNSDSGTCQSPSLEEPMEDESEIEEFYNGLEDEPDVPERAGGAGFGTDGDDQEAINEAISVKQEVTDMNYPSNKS
From the text: A mass spectrometry based assay was used to identify modulators of SIRTI activity. The mass spectrometry based assay utilizes a peptide having 20 amino acid residues as follows: Ac-EE-K(biotin)-GQSTSSHSK(Ac)NleSTEG-K(5TMR)-EE-NH2 (SEQ ID NO: 1) wherein K(Ac) is an acetylated lysine residue and Nle is a norleucine. The peptide is labeled with the fluorophore 5TMR (excitation 540 nrnIemission 580 nm) at the C-terminus. The sequence of the peptide substrate is based on p53 with several modifications. In addition, the methionine residue naturally present in the sequence was replaced with the norleucine because the methionine may be susceptible to oxidation during synthesis and purification.
The mass spectrometry assay is conducted as follows: 0.5 J-1M peptide substrate and 120 μM βNAD^+ is incubated with 10 nM SIRT1 for 25 minutes at 25° C. in a reaction buffer (50 mM Tris-acetate pH 8, 137 mM NaCl, 2.7 mM KCl, 1 mM MgClz, 5 mM DTT, 0.05% BSA). Test compounds may be added to the reaction as described above. The SirTI gene is cloned into a T7-promoter containing vector and transformed into BL21 (DE3). After the 25 minute incubation with SIRT1, 10 μL of 10% formic acid is added to stop the reaction. Reactions are sealed and frozen for later mass spec analysis. Determination of the mass of the substrate peptide allows for precise determination of the degree of acetylation (i.e. starting material) as compared to deacetylated peptide (product).
A control for inhibition of sirtuin activity is conducted by adding 1 μL of 500 mM nicotinamide as a negative control at the start of the reaction (e.g., permits determination of maximum sirtuin inhibition). A control for activation of sirtuin activity is conducted using 10 nM of sirtuin protein, with 1 μL of DMSO in place of compound, to determine the amount of deacetylation of the substrate at a given timepoint within the linear range of the assay. This timepoint is the same as that used for test compounds and, within the linear range, the endpoint represents a change in velocity.
For the above assay, SIRTI protein was expressed and purified as follows. The SirT1 gene was cloned into a T7-promoter containing vector and transformed into BL21(DE3). The protein was expressed by induction with 1 mM IPTG as an N-terminal His-tag fusion protein at 18° C. overnight and harvested at 30,000×g. Cells were lysed with lysozyme in lysis buffer (50 mM Tris-HCl, 2 mM Tris[2-carboxyethyl]phosphine (TCEP), 10 μM ZnCl2, 200 mM NaCl) and further treated with sonication for 10 min for complete lysis. The protein was purified over a Ni-NTA column (Amersham) and fractions containing pure protein were pooled, concentrated and run over a sizing column (Sephadex S200 26/60 global). The peak containing soluble protein was collected and run on an Ion-exchange column (MonoQ). Gradient elution (200 mM-500 mM NaCl) yielded pure 20 protein. This protein was concentrated and dialyzed against dialysis buffer (20 mM TrisHCl, 2 mM TCEP) overnight. The protein was aliquoted and frozen at −80° C. until further use.
Sirtuin modulating compounds that activated SIRT1 were identified using the assay described above and are shown below in Table 4. The EC1.5 values represent the concentration of test compounds that result in 150% activation of SIRT1. The EC1.5 values for the activating compounds are represented by A (EC1.5≦1 μM), B (EC1.5>1 μM). The percent maximum fold activation is represented by A (Fold activation ≧200%) or B (Fold Activation <200%).

SIRT1 [2] = target: T1, SIRT1; assay: Mass spectroscopic kinetic assay of SIRT1-catalyzed deacetylation of 20mer peptides; format: biochemical; details: for Effect on the deacetylation of des(biotin,TAMRA)-peptide: substrate des(biotin,TAMRA)-peptide; for RVmax for activation of the deacetylation of desTAMRA-peptide / EC50: substrate desTAMRA-peptide, fit to eq (1); for EC50: read-out: EC50 for activation of the deacetylation of desTAMRA-peptide; for Ki,app for inhibition of the deacetylation of p53-20 mer / Ki: substrate p53-20 mer, RV=1/(1+([X]o/Ki,app)); for Ki: read-out: Ki,app for inhibition of the deacetylation of p53-20 mer
Protocol: Bovine glutamate dehydrogenase (GDH), α-ketoglutarate, NADH and NAD^+ were from Sigma Chemical Company. […] The nicotinamidase PNC1 was prepared as described by Denu and colleagues (Smith et al. (2009) Anal Biochem 394, 101-109). Our collection of approximately 5,000 SIRT1 activators was screened using the BioTrove mass spectrometry system, as previously described (Milne et al. (2007) Nature 450, 712-716). […] Compounds were present at 10 μM, and the assays were conducted in a pH 7.4 buffer containing 150 mM Tris, 5 mM DTT, 1% DMSO, and 0.025% BSA. To determine the interaction of STACs with SIRT1 two kinetic methods were employed. […] (2007) Nature 450, 712-716). The other, used with peptides of general structure […], used a continuous, enzyme-coupled method reported previously (Smith et al. (2009) Anal Biochem 394, 101-109), in which the SRT1 product nicotinamide is first converted into nicotinic acid and ammonia by the action of PNC1, and the ammonia then used by GDH to convert α-ketoglutarate into glutamate. This reaction occurs with oxidation of NADH to NAD^+ which is accompanied by a change in absorbance at 340 nm (Δε340=-6,200 M^-1 cm^-1). Activator titrations were plotted as relative velocity (i.e., the ratio of vx, velocity in the presence of activator X, to vo, velocity in the absence of activator) vs. [X]o, initial concentration of activator, and fit by nonlinear least-squares to the mechanism-independent expression for enzyme activation of […] the maximum relative velocity (i.e., vx/vo at infinite [X]o) and EC50 is the activator concentration at which vx/vo=(RVmax-1)/2. EC50 is a function of the kinetic mechanisms of both catalysis and activation, and the concentrations of substrates.

Compound | Emax (SIRT1 [1]) | EC1.5 uM (SIRT1 [1]) | further results
CCCCc1nc(NCCNC)cc(C(=O)Nc2ccccc2-c2nc3cc(COC4CCNCC4)cnc3s2)n1 [Compound 12, 2-butyl-6-(2-(methylamino)ethylamino)-N-(2-(6-((piperidin-4-yloxy)methyl)thiazolo[5,4-b]pyridin-2-yl)phenyl)pyrimidine-4-carboxamide] | ≥ 200% | A (EC1.5≦1 μM) | Effect on the deacetylation of des(biotin,TAMRA)-peptide (SIRT1 [2]): none activate; RVmax for activation of the deacetylation of desTAMRA-peptide (SIRT1 [2]): ~2.3; RVmax for activation of the deacetylation of desTAMRA-peptide (SIRT1 [2]; listed as 24): 2.1 ± 0.1; EC50 (SIRT1 [2]): ~2 µM and 1.5 µM; Ki,app for inhibition of the deacetylation of p53-20 mer (SIRT1 [2]): inhibit; Ki (SIRT1 [2]): 9 ± 3 µM
O=C(Nc1cccc(COC2CCNCC2)c1)c1cccc2[nH]c(-c3ccnc(N4CCOCC4)c3)nc12 [Compound 17, 2-(2-morpholinopyridin-4-yl)-N-(3-((piperidin-4-yloxy)methyl)phenyl)-1H-benzo[d]imidazole-4-carboxamide] | ≥ 200% | A (EC1.5≦1 μM) | –
CN(C)CCNCc1cccc(C(=O)Nc2ccccc2-c2nc3cc(COC4CCNCC4)cnc3s2)c1 [Compound 9] | < 200% | B (EC1.5>1 μM) | –
COc1ccc2nc(NC(=O)c3cccc4[nH]c(-c5ccc(N6CCNCC6)nc5)nc34)sc2c1 [Compound 19, N-(6-methoxybenzo[d]thiazol-2-yl)-2-(6-(piperazin-1-yl)pyridin-3-yl)-1H-benzo[d]imidazole-4-carboxamide] | ≥ 200% | A (EC1.5≦1 μM) | –
O=C(Nc1ccccc1-c1nc2cc(CN3CC[C@@H](F)C3)cnc2s1)c1cccc(OC2CN3CCC2CC3)c1 (stereo partly drawn) [Compound 5, N-(2-(6-(((R)-3-fluoropyrrolidin-1-yl)methyl)thiazolo[5,4-b]pyridin-2-yl)phenyl)-3-(quinuclidin-3-yloxy)benzamide] | ≥ 200% | B (EC1.5>1 μM) | –
O=C(Nc1ccccc1-c1cn2c(CN3CCNCC3)csc2n1)c1nc2ncccc2o1 [Compound 3, N-(2-(3-(piperazin-1-ylmethyl)imidazo[2,1-b]thiazol-6-yl)phenyl)oxazolo[4,5-b]pyridine-2-carboxamide] | < 200% | B (EC1.5>1 μM) | –
CCCNc1cc(-c2nc3c(NC(=O)c4cccc(C5CCNC5)c4)cccc3[nH]2)ccn1 (stereo not drawn) [Compound 15, N-(2-(2-(propylamino)pyridin-4-yl)-1H-benzo[d]imidazol-4-yl)-3-(pyrrolidin-3-yl)benzamide hydrochloride] | ≥ 200% | A (EC1.5≦1 μM) | –
CC(C)CNCC1CC1C(=O)Nc1ccccc1-c1nc2cc(CN3CCNCC3)cnc2s1 (stereo not drawn) [Compound 6] | – | B (EC1.5>1 μM) | –
O=C(Nc1ccccc1-c1cn2c(CN3CCNCC3)csc2n1)c1cccc(-c2ccccc2)c1 [Compound 1, N-(2-(3-(piperazin-1-ylmethyl)imidazo[2,1-b]thiazol-6-yl)phenyl)biphenyl-3-carboxamide] | ≥ 200% | A (EC1.5≦1 μM) | –
CN(C)CCCNc1ccc(-c2nc3cc(NC(=O)c4cccc(CN5CCNCC5)c4)ccc3[nH]2)cn1 [Compound 18] | < 200% | B (EC1.5>1 μM) | –
CC(C)Cc1nc(NC2CCNCC2)cc(C(=O)Nc2ccccc2-c2nc3cc(COC4CCNCC4)cnc3s2)n1 [Compound 11, 2-isobutyl-6-(piperidin-4-ylamino)-N-(2-(6-((piperidin-4-yloxy)methyl)thiazolo[5,4-b]pyridin-2-yl)phenyl)pyrimidine-4-carboxamide] | ≥ 200% | A (EC1.5≦1 μM) | Effect on the deacetylation of des(biotin,TAMRA)-peptide (SIRT1 [2]): none activate; RVmax for activation of the deacetylation of desTAMRA-peptide (SIRT1 [2]): ~2.3; RVmax for activation of the deacetylation of desTAMRA-peptide (SIRT1 [2]; listed as 23): 2.8±0.2; EC50 (SIRT1 [2]): ~2 µM and 2.2 µM; Ki,app for inhibition of the deacetylation of p53-20 mer (SIRT1 [2]): inhibit; Ki (SIRT1 [2]): 10 ± 1 µM
N#Cc1ccc(NC(=O)c2cccc3[nH]c(-c4ccc(N5CCNCC5)nc4)nc23)cc1C(F)(F)F [Compound 20, N-(4-cyano-3-(trifluoromethyl)phenyl)-2-(6-(piperazin-1-yl)pyridin-3-yl)-1H-benzo[d]imidazole-4-carboxamide] | ≥ 200% | A (EC1.5≦1 μM) | –
CCCCN(CCCC)c1cc(-c2nc3c(C(=O)Nc4cccc(COC5CCNCC5)c4)cccc3[nH]2)ccn1 [Compound 21] | ≥ 200% | A (EC1.5≦1 μM) | –
COc1ccc(C(=O)Nc2ccccc2-c2nc3cc(COC4CCNCC4)cnc3s2)cc1OC [Compound 8, 3,4-dimethoxy-N-(2-(6-((piperidin-4-yloxy)methyl)thiazolo[5,4-b]pyridin-2-yl)phenyl)benzamide] | ≥ 200% | A (EC1.5≦1 μM) | –
